Read-outs that look alike come from different tables or passages of the source.
Key:
[1] = molecular target: human Ether-a-go-go-Related Gene (hERG) potassium channel (Homo sapiens, UniProt Q12809); experiment: Predictor hERG Fluorescence Polarization Assay; assay type: binding
[2] = test system: neonatal rat ventricular cardiomyocytes (NRVCMs); experiment: MTT viability assay of neonatal rat ventricular cardiomyocytes; assay type: cell-based; conditions: 0, 50, 100 and 200 µM; 24 or 48 h of analog exposure
[3] = test system: neonatal rat ventricular cardiomyocytes (NRVCMs); experiment: LIVE/DEAD assay of neonatal rat ventricular cardiomyocytes; assay type: cell-based; conditions: 50 μM; 12, 24 and 48 h; apparent beginning 12 to 24 h
[4] = molecular target: cytochrome P450 3A4 (CYP3A4) (Homo sapiens, UniProt P08684); experiment: P450-Glo CYP3A4; assay type: in vitro ADME; conditions: 400 μM (parent hexosamines)
Sequence of cytochrome P450 3A4 (CYP3A4) (P08684 whole entry): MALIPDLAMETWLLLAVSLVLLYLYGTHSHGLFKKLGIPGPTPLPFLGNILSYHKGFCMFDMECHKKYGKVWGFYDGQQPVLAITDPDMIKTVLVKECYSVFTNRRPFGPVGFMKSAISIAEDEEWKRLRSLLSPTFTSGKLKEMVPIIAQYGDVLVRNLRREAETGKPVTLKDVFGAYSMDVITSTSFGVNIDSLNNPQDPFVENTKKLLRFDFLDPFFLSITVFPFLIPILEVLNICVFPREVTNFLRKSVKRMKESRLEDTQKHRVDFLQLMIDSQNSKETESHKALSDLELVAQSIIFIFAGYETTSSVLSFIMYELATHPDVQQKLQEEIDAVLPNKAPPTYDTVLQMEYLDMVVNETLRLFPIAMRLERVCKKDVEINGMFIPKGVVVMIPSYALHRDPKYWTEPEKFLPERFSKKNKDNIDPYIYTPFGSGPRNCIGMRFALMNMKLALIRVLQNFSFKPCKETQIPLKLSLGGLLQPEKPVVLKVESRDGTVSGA

[5] = Chromatographic hydrophobicity indexing; assay type: physicochemical; conditions: C18 RP-HPLC, rank among the test compounds
[6] = read-out: hERG inhibition, concentration range, Fig. 8B & C

Sequence of human Ether-a-go-go-Related Gene (hERG) potassium channel (Q12809 whole entry): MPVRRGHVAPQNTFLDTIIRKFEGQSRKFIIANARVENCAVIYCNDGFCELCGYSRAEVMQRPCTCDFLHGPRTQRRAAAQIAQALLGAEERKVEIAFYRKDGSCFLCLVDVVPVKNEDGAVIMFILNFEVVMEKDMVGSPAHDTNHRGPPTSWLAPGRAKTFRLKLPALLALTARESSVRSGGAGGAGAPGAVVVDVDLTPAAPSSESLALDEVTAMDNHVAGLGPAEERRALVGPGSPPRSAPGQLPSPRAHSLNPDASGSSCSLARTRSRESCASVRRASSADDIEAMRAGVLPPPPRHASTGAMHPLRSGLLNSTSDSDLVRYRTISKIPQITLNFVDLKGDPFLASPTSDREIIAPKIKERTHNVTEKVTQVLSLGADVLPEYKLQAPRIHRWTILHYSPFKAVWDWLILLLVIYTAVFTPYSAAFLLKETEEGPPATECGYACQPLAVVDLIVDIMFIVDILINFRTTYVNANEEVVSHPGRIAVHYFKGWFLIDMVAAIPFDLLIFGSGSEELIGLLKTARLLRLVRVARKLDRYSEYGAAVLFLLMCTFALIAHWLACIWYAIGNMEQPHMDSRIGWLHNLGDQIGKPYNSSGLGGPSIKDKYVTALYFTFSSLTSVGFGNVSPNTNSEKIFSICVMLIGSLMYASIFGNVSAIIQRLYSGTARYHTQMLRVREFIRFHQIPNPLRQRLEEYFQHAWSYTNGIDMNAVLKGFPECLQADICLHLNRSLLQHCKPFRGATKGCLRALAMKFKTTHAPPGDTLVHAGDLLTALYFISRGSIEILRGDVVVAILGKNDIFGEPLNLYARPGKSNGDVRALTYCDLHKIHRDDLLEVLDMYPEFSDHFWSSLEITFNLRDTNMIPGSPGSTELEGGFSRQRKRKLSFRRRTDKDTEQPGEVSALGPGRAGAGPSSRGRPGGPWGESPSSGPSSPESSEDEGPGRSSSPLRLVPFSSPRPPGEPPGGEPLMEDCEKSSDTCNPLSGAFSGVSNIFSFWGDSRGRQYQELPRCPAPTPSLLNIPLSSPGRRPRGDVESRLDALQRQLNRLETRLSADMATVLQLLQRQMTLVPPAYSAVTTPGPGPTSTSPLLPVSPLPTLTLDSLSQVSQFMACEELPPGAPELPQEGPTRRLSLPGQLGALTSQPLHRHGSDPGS

SMILES | IC50 [1, 6] | NRVCM cell viability (MTT) [2] | cardiomyocyte cell death (LIVE/DEAD) [3] | further results
CCCC(=O)OC1OC(CO)[C@@H](OC(=O)CCC)[C@H](OC(=O)CCC)C1NC(C)=O (some centres unmarked) [1,3,4-O-Bu3GlcNAc] | – | – | – | hERG inhibition (detectable or not) ([1]; up to 1 mM, the highest concentration tested): no detectable inhibition
CCCC(=O)OC[C@H]1OC(O)[C@@H](NC(C)=O)[C@@H](OC(=O)CCC)[C@@H]1OC(=O)CCC (some centres unmarked) [3,4,6-O-Bu3ManNAc] | 1 to 100 µM | significantly reduced NRVCM cell viability | Significantly higher cell death | fold greater hERG potency versus 3,4,6-O-Bu3GlcNAc ([1]; ManNAc analog versus GlcNAc analog): ~ 13 fold
CCCC(=O)OC1O[C@H](CO)[C@@H](OC(=O)CCC)[C@H](OC(=O)CCC)[C@H]1NC(=O)CN=[N+]=[N-] (some centres unmarked) [1,3,4-O-Bu3GlcNAz] | – | – | – | IC50 ([1]; read-out: hERG inhibition IC50, fluorescence polarization, doses 69.7 pM to 1 mM): 2.85 µM
CC(=O)N[C@H]1[C@@H](O)[C@H](O)[C@@H](CO)O[C@@H]1O [ManNAc] | – | – | – | effect on CYP3A4 [4]: negligible effect
CCCC(=O)OC[C@H]1OC(O)[C@H](NC(C)=O)[C@@H](OC(=O)CCC)[C@@H]1OC(=O)CCC (some centres unmarked) [3,4,6-O-Bu3GlcNAc] | 1 to 100 µM | significantly reduced NRVCM cell viability | Significantly higher cell death | –
CCCC(=O)OC1OC(CO)[C@@H](OC(=O)CCC)[C@H](OC(=O)CCC)C1NC(=O)CN=[N+]=[N-] (some centres unmarked) [1,3,4-O-Bu3ManNAz] | – | – | – | lipophilicity rank by experimental CHI score [5]: second highest lipophilicity

Reference: publication PMC6292510 (Molecular pharmaceutics, 2017)
